According to patent US10570176B2, “Anti-hepatitis B virus X protein polypeptide pharmaceutical” (priority 2015, dated 2020):
Where “and” joins values, the source holds several entries; their conditions need not be identical. Identical values can stand only once. Marks after values point to notes of the source that are not given here. Non-standard residues stand in square brackets, D forms with d. Residues, ends and D or L forms follow the SMILES beside them.

Tests used:
in vivo = conditions: rat, plasma, iv, 3.5 mg/kg
Description: Blood samples were collected and placed the heparinized test tubes according to blood collection times.

HBx protein = target: T1, HBx protein (Hepatitis B virus genotype D subtype ayw, UniProt P03165); assay: In vitro binding to recombinantly expressed HBx protein, Biacore 3000
T1 construct: made in house
T1 sequence (P03165 whole entry): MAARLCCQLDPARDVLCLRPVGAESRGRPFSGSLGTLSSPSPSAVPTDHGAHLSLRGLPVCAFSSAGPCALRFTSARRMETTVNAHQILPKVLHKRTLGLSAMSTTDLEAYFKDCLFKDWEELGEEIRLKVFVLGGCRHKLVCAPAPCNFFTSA
Method: The recombinant plasmid (pET-30a-HBx) expressing HBx gene was self-constructed and preserved (Zhang H, et al. J Biomed Biotechnol, doi:10.1155/2009/289068), and then expression and purification of HBx were conducted according to above reference for the measurement of in vitro binding ability. Biacore 3000 biomolecular interaction analyzing unit (manufactured by GE Healthcare) was utilized to measure in vitro binding ability of polypeptide D-TTK001 to recombinantly expressed HBx protein. Polypeptide at different concentrations were injected for 180 seconds at a rate of 30 μL/min. In dissociation stage, HBS-EP buffer was injected for 900 seconds at a rate of 30 μL/min, then at a rate of 30 μL/min, 2 shots of 1 mM NaOH were injected for 20 seconds to regenerate the chip. All signals were calibrated using channel 1 as the reference channel. Binding measurement was conducted twice, respectively, wherein in the first measurement, HBX was injected into the channel of the coupled polypeptide and the blank channel at concentrations of 0 nM, 10 nM, 50 nM, 100 nM, 500 nM and 600 nM, respectively. Binding time was 180 seconds and dissociation time was 400 seconds. On chip surface, 1 mM NaOH was injected for 20 seconds at a rate of 30 μL/min for regeneration. In the second measurement, HBX was injected into the channel of coupled polypeptide and the blank channel at concentrations of 0 nM, 10 nM, 50 nM, 588 nM, 1 μM, and 2 μM, respectively. Binding time was 180 seconds and dissociation time was 400 seconds. On chip surface, 1 mM NaOH was injected for 20 seconds at a rate of 30 μL/min for regeneration. Results were kinetically analyzed by BIA Evaluation Software.

[1] = Acute toxicity test in Kunming white mice; format: in vivo; conditions: 500 mg/kg, tail intravenous injection, observed 24 hrs
Method: Control group and experimental group each consists of 10 Kunming white mice, with 5 females and 5 males in each group, respectively. Experimental group were injected with polypeptide D-TTK001 with the concentration of 500 mg/kg (10 mg lyophilized polypeptide dissolved in 0.8 mL sterilized distilled water) by tail intravenous injection; control group were injected with 0.8 mL sterilized distilled water. Consecutively observing the mice for 24 hrs. after injection.

HBV transgenic mice [2] = assay: Serum HBV DNA copy number in HBV transgenic mice, real-time PCR; format: in vivo; conditions: for effective rate (serum HBV DNA): tail i.v. daily
Description: HBV transgenic mice were purchased from Guangzhou Junketaite Pharmaceutical Technology Co., Ltd. The animal model is a 1.3 copies high expressing replicative form HBV whole-genome transgenic mice Tg (HBV 1.3 genome) Swb established using microinjection method by Guangzhou Junketaite Pharmaceutical Technology Co., Ltd. Serum HBsAg and HBeAg can be analyzed with common ELISA kit; serum HBV DNA of 93.93% positive transgenic mice is 10^4˜10^6 copy/mL; liver tissues in immunohistochemistry have HBsAg (cytoplasmic type) and HBcAg (karyotype) expression. […] This makes a good foundation for the transgenic model to be used in evaluating anti-HBV drugs.
(§1) Prepare D-TTK001 aseptically. Administer 2.5 mg/kg (10 mice) or 5.0 mg/kg (42 mice) based on mice weight through tail intravenous injection in a volume of 50 μL. Administer 50 μL of sterile PBS to blank control group (10 mice). Mice are 6-8 months old, half male and half female. Inject daily for 3 weeks (21 days in total). Take artery blood from mice tail before administration for future measurement of HBV DNA content in mice blood, record as T0 group. Take artery blood from mice tail after one week (T1+ group), two weeks (T2+ group), and three weeks (T3+ group) of administration. Take blood after one week of stopping administration (T4 group). Blood samples were standed in room temperature for 2-4 hours to prepare serum. Store samples in −80° C. refrigerator for future measurement of HBV DNA content in mice blood.
(i) Preparation of test samples: Take out the test samples from −80° C. refrigerator. Place it at room temperature for balancing. Take corresponding amount of reaction liquid, enzyme mix and internal standard by proportion (reaction liquid 38 μL per serving+enzyme mix 2 μL per serving+internal standard 0.2 μL per serving) according to numbers of test sample, negative control sample and reference sample, mix sufficiently as PCR-mix. Sample treatment (negative control, positive control quantitative reference and test samples are treated synchronously): Add 5 μL of cell nucleic releaser into each PCR reaction tube, then add 5 μL test sample into each tube, absorb back and forth for 3-5 times and mix; after more than 10 minutes interval, add 40 μL of PCR-mix into each tube, close the tubes with caps, centrifuge at 2000 rpm for 30 seconds.
Utilizing real time PCR HBV DNA assay kit manufactured by Sun Yat-sen University Daan Gene Co., Ltd. according to the manufacturer's specification as followed: Place PCR reaction tube into sample cell of PCR instrument, set negative control, positive control, quantitative references A-D and test sample in corresponding order, and then set sample name and concentration of quantitative reference. Selection of fluorescence detection channel: for example, in ABI 7300 instrument, i) select FAM channel (reporter: FAM, quencher: none) to detect HBV-DNA; ii) select HEX/VIC channel (reporter: HEX/VIC, quencher: none) to detect HBV-internal standard; iii) set passive reference as ROX.
Set analysis conditions: adjust start value, stop vale of Baseline and Value of Threshold according to analyzed image (arbitrary adjustable by user according to actual needs, start value can be 1˜10, stop value can be 5˜10, Value can be 0.01˜0.2) to optimize standard curve in “Std curve” window, i.e., correlation between −1.0˜−0.97. Select “Analyze” in “Analysis” menu for automatic result analysis. Record value (C) of unknown variable in “Tray” window. “C” indicates concentration or content of the sample.

[3] = tested on: HepG2-X cells inoculated tumor in nude mice; assay: Survival of nude mice bearing HepG2-X inoculated tumor; format: in vivo; conditions: 0.1 mg/kg or 5.0 mg/kg, tail i.v. daily for 30 days
Method: Suspend HepG2-X cells at exponential phase by treating with trypsin, count the number of cells, dilute to 1×10^7 cells/mL with sterile physiological saline, and then store in ice water. Take two female BALB/C mice of 4˜6 weeks age: i) one mouse in control group, inject 0.2 mL of above diluted cells to the armpit of right forelimb for each mouse, then only inject 0.5 mL of sterilized distilled water (without polypeptide drugs); ii) one mouse in experimental group with an administration dose of 10 mg/kg weight. Inject 0.2 mL of above diluted cells to the armpit of right forelimb for each mouse, after 20 days of injection, remove tumor tissue aseptically, cut into small tissue pieces, back inoculate to female BALB/C mice of 4˜6 weeks age for 18 mice in total. After tumor volume (V=L×W^2 0.5) reaches 100 mm^3, divide 18 mice into 3 groups each having 6 mice. The first group is control group, tail intravenous injecting with sterile PBS. […] Inject daily for 30 days, measure mice weight and tumor volume before each injection, and observe survival time of nude mice. After mice dies, perform analysis using Kaplan-Meier method to plot survival curve, Log-Rank is employed for statistical analysis.

HBV transgenic mice [4] = assay: Pathological observation of liver tissue of HBV transgenic mice; format: in vivo; conditions: 5 mg/kg, tail intravenous injection, 3 weeks treatment
Method: as §1
After above experiments on HBV transgenic mice were finished, mice were sacrificed, and liver tissue was taken, fixed with formalin, embed with conventional method, to prepare tissue biopsies, pathological observation was then conducted.

Q: With `CSCC[C@@H](NC(=O)[C@H](NC(=O)[C@@H](C)NC(=O)[C@@H](CO)NC(=O)CN)C(C)C)C(=O)N[C@H](Cc1ccccc1)C(=O)N[C@H](CO)C(=O)N[C@H](CO)C(=O)N[C@H](CCCCN)C(=O)N[C@H](CCC(=O)O)C(=O)N[C@H](CCCNC(=N)N)C(=O)NCC(=O)O` [D-TTK001, Gly-D-Ser-D-Ala-D-Val-D-Met-D-Phe-D-Ser-D-Ser-D-Lys-D-Glu-D-Arg-Gly] (H-G[dS][dA][dV][dM][dF][dS][dS][dK][dE][dR]G-OH; N-terminus and C-terminus assumed) as the compound, how does the C0 (in vivo) read?
A: Its C0 is 36500 ng/mL.

Q: And the Vd (in vivo)?
A: Its Vd is 0.207 L/kg.

Q: And the AUC(0-t) (in vivo; AUC0-t, Mean, rats, intravenous injection 3.5 mg/kg, mean of 6)?
A: Its AUC(0-t) is 20800 ng·h/mL.

Q: And the AUC(0-inf) (in vivo; AUC0-∞, Mean, rats, intravenous injection 3.5 mg/kg, mean of 6)?
A: Its AUC(0-inf) is 24100 ng·h/mL.

Q: What about the clearance (in vivo; CL, Mean, rats, intravenous injection 3.5 mg/kg, mean of 6) of the same compound?
A: The clearance was 3 mL/min/kg.

Q: And the Cmax (in vivo; Cmax, Mean, rats, intravenous injection 3.5 mg/kg, mean of 6)?
A: The Cmax was 35800 ng/mL.

Q: And the half-life (in vivo; t½, Mean, rats, intravenous injection 3.5 mg/kg, mean of 6)?
A: The half-life was 55.3 min.

Q: What about the Kd (HBx protein; KD, Biacore 3000, first and second measurement) of the same compound?
A: The Kd was 29.9 nM and 40.3 nM.

Q: And the “in vitro binding to HBx compared with L-polypeptide anti-HBxP1#” value (HBx protein; comparison in words)?
A: The value was “lower than that of L-polypeptide anti-HBxP1#”.

Q: What about the Kd (HBx protein; in vitro binding to HBx, in vitro binding analysis results) of the same compound?
A: The Kd was 35 nM.

Q: What about the “acute toxicity: behaviors” value [1] of the same compound?
A: Its value is “do not have abnormal behaviors”.

Q: And the “acute toxicity: changes in weight as compared with control group” value [1]?
A: The value was “no abnormal changes in weight”.

Q: What about the “copy number of HBV DNA in serum” value (HBV transgenic mice [2]; 2.5 mg/kg and 5.0 mg/kg, tail intravenous injection) of the same compound?
A: The value was “clearly reduced”.

Q: And the “effective rate (serum HBV DNA)” value (HBV transgenic mice [2]; 2.5 mg/kg group, from one week (T1+ group), 3 out of 10 mice)?
A: Its value is 30%.

Q: And the “effective rate (serum HBV DNA)” value (HBV transgenic mice [2]; 5.0 mg/kg group, 23 out of 42 mice)?
A: Its value is 54.8%.

Q: And the “time dependent decreasing effective rate” value (HBV transgenic mice [2]; 5.0 mg/kg group, 7 out of 23 mice)?
A: Its value is 30.4%.

Q: What about the “effective rate (serum HBV DNA) from one week (T1+ group)” value (HBV transgenic mice [2]; 5.0 mg/kg group, 18 out of 39 mice) of the same compound?
A: The value was 46.2%.

Q: What about the “survival of tumor bearing nude mice” value [3] of the same compound?
A: Its value is “clearly prolonged”.

Q: What about the “ballooning degeneration of hepatocytes in liver tissue” value (HBV transgenic mice [4]) of the same compound?
A: Its value is “none of 6 mice in experimental group showed ballooning degeneration of hepatocytes”.
